Data reported in patent US8927563B2, “Kinase inhibitor” (Respivert Limited, priority 2013, dated 2015).

What was measured:
Lck = Lck (Homo sapiens (Human), UniProt P06239); assay: Phosphoflow assay, cellular Lck inhibition in Jurkat cells; type: cell-based; conditions: H2O2 stimulated, read-out: IC50 Values, phospho-Lck (converted)
Description: Jurkat T cells were cultured in starve medium (RPMI 1640+5% FBS) for 24 h prior to the experiment. Cells were harvested and resuspended at 10×10^6 cells/mL in starve medium and then plated into round-bottomed 96 well plates at 1×10^6 cells/well. Serial dilutions of test compound were added (1% final DMSO concentration) for 2 h prior to stimulation. Following pre-incubation with compound, cells were stimulated with H2O2 (0.05% final) for 5 min. The reaction was stopped by centrifugation at 2000 rpm (3 min, 4° C.), then the supernatant was removed and 100 μL of cold fix/perm solution (BD Fix/Perm kit #554714) added. Plates were incubated for 20 min at 4° C. before centrifugation and washing with supplied 1× wash medium (BD Fix/Perm kit #554714). Cells were stained for either phospho-p38α (T180/182), supplied by Cell Signalling Technology (9211s), or phospho-Lck (Y394), supplied by R&D (MAB7500). Antibodies were diluted to 5 μg/mL (R&D) or 1:200 (Cell Signalling Technology) in wash medium, before being incubated 1 h at 4° C. in the dark. Following 3 repeat washes with ice cold wash buffer, secondary antibody (anti-rabbit-FITC #F1362 or anti-mouse-FITC #F2883, both from Sigma) was added at a dilution of 1:1000 and incubated for 1 h at 4° C. in the dark. […] Cells were analysed by flow cytometry using BD Accuri C6.

d-U937 cells = assay: Accumulation of β catenin in d-U937 cells; type: cell-based, human; conditions: normalised to Reference compound at 1 μg/mL
Description: U937 cells, a human monocytic cell line, are differentiated into macrophage-type cells by incubation with PMA (100 ng/mL) for between 48 to 72 hr. The cells are then incubated with either final concentrations of test compound or vehicle for 18 hr. The induction of β-catenin by the test compound is stopped by replacing the media with 4% formaldehyde solution. Endogenous […] is neutralised by incubating with quenching buffer (100 μL, 0.1% sodium azide, 1% H2O2 in PBS with 0.05% Tween-20) for 20 min. The cells are washed with washing buffer (200 μL; PBS containing 0.05% Tween-20) and incubated with blocking solution (200 μL; 5% milk in PBS) for 1 hr, re-washed with washing buffer (200 μL) and then incubated overnight with anti-β-catenin antibody solution (50 μL) in 1% BSA/PBS (BD, Oxford, UK).
After washing with washing buffer (3×200 μL; PBS containing 0.05% Tween-20), cells are incubated with a HRP-conjugated secondary antibody solution (100 μL) in 1% BSA/PBS (Dako, Cambridge, UK) and the resultant signal is determined colourimetrically (OD: 450 nm with a reference wavelength of 655 nm) using TMB substrate (50 μL; R&D Systems, Abingdon, UK). This reaction is stopped by addition of 1N H2SO4 solution (50 μL). Cells are then washed with washing buffer and 2% crystal violet solution (50 μL) is applied for 30 min. After washing with washing buffer (3×200 μL), 1% SDS (100 μL) is added to each well and the plates are shaken lightly for 1 hr prior to measuring the absorbance at 595 nm (Varioskan® Flash, Thermo-Fisher Scientific).
The measured OD450-655 readings are corrected for cell number by dividing the OD450-655 by the OD595 readings.

TNBS-induced colitis = TNBS-induced colitis in mice; type: in vivo
Description: Non-fasted, 10-12 week old, male BDF1 mice are dosed by oral gavage twice daily with either vehicle (5 mL/kg), reference item (Budesonide 2.5 mg/kg) or test compound (1 or 5 mg/kg) one day before (Day −1) stimulation of the inflammatory response by treatment with 2,4,6-trinitrobenzenesulphonic acid (TNBS) (15 mg/mL in 50% ethanol/50% saline). On Day 0 of the study, TNBS (200 μL) is administered intra-colonically via a plastic catheter with BID dosing of the vehicle, reference or test compound continuing for 2 or 4 days. During the study, animals are weighed every day and stool observations are made and recorded as a score, based on stool consistency. At the time of sacrifice on Day 2 (or Day 4), the large intestine is removed and the length and weight recorded. Sections of the colon are taken for histopathology scoring to determine disease severity.

[1] = system: intestinal mucosa biopsies from ulcerative colitis patients; assay: Human biopsy assay, cytokine release from biopsies of UC patients; type: cell-based; conditions: 1 μg/mL, 24 hours; relative to DMSO control 100%
Description: Intestinal mucosa biopsies are obtained from the inflamed regions of the colons of IBD patients. The biopsy material is cut into small pieces (2-3 mm) and placed on steel grids in an organ culture chamber at 37° C. in a 5% CO2/95% O2 atmosphere in serum-free media. DMSO control or test compound at the desired concentration are added to the tissue and incubated for 24 hr in the organ culture chamber. The supernatant is harvested for determination of IL-6, IL-8, IL-1β and TNFα levels by R&D ELISA.

GSK3α = GSK3α (Homo sapiens (Human), UniProt P49840); assay: GSK3α enzyme inhibition (Method 2), Z-LYTE FRET; type: biochemical
Description: The enzyme inhibitory activities of compounds disclosed herein are determined by FRET using synthetic peptides labelled with both donor and acceptor fluorophores (Z-LYTE, Invitrogen Ltd., Paisley, UK).
The inhibitory activities of the compound of the invention against the GSK 3α enzyme isoform (Invitrogen), are evaluated by determining the level of activation/phosphorylation of the target peptide. The GSK3-α protein (500 ng/mL, 2.5 μL) is mixed with the test compound (2.5 μL at either 4 μg/mL, 0.4 μg/mL, 0.04 μg/mL, or 0.004 μg/mL) for 2 hr at RT. The FRET peptide (8 μM, 2.5 μL), which is a phosphorylation target for GSK3α, and ATP (40 μM, 2.5 μL) are then added to the enzyme/compound mixture and the resulting mixture incubated for 1 hr. Development reagent (protease, 5 μL) is added for 1 hr prior to detection in a fluorescence microplate reader (Varioskan® Flash, ThermoFisher Scientific).
In all cases, the site-specific protease cleaves non-phosphorylated peptide only and eliminates the FRET signal. Phosphorylation levels of each reaction are calculated using the ratio of coumarin emission (donor) over fluorescein emission (acceptor), for which high ratios indicate high phosphorylation and low ratios indicate low phosphorylation levels. […]

[2] = 5 mg/kg orally BID, 2 days, SMEDDS vehicle

Sequence of Lck (P06239 whole entry): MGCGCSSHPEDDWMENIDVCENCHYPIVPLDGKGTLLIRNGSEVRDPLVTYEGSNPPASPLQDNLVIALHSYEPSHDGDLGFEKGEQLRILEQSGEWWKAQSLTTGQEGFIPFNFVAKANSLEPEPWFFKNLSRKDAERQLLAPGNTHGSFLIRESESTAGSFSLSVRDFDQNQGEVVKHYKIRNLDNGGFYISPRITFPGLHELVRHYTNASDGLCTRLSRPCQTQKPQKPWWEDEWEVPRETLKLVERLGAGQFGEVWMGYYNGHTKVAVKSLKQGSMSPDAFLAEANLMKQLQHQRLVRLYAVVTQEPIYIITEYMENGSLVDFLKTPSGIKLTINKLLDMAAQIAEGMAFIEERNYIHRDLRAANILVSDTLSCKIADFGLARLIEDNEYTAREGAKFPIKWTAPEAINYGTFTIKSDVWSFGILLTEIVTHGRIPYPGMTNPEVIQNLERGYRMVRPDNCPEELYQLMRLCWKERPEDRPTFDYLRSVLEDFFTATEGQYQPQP
Sequence of GSK3α (P49840 whole entry): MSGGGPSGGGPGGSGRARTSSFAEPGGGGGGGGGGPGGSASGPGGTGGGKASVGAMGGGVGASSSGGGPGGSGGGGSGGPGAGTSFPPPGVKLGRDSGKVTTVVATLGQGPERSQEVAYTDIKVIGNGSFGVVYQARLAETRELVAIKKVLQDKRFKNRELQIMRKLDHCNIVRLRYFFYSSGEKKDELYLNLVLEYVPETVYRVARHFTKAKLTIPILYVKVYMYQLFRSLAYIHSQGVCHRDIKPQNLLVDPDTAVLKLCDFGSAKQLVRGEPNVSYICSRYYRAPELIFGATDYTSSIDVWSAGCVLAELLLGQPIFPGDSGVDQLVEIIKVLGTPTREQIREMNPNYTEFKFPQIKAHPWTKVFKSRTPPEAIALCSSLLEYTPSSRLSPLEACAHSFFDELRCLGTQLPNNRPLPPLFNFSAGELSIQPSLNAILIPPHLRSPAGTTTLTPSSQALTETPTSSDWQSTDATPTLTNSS

How did the IC50 (Lck) turn out when C#Cc1cc(Nc2nccc(Oc3ccc(NC(=O)Nc4cc(C(C)(C)C)cc(NS(C)(=O)=O)c4OC)c4ccccc34)n2)cc(C(=O)NCCOCCOCCOC)c1 [Compound I, 3-((4-((4-(3-(5-(tert-Butyl)-2-methoxy-3-(methylsulfonamido)phenyl)ureido)naphthalen-1-yl)oxy)pyrimidin-2-yl)amino)-5-ethynyl-N-(2-(2-(2-methoxyethoxy)ethoxy)ethyl)benzamide] was run?
The IC50 was 7.14 nM.

And the “% β-catenin induction” value (d-U937 cells; 1 μg/mL)?
Its value is 21%.

What about the “% β-catenin induction” value (d-U937 cells; 5 μg/mL) of the same compound?
The value was 14%.

And the “% β-catenin induction” value (d-U937 cells; 10 μg/mL)?
The value was 26%.

What about the LP inflammation (TNBS-induced colitis; [2]) of the same compound?
Its LP inflammation is 3.8 ± 0.4.

And the Ulcer grade (TNBS-induced colitis; [2])?
Its Ulcer grade is 3.6 ± 0.5.

And the “inflammatory cell infiltrate in the reticular and laminar propria zones” value (TNBS-induced colitis; dosed orally at 5 mg/kg)?
Its value is “marked reduction”.

And the “ulcer grade and epithelial repair compared to the vehicle control” value (TNBS-induced colitis; dosed orally at 5 mg/kg)?
The value was “marked improvements”.

What about the “IL-1β release from biopsies of UC patients” value [1] of the same compound?
Its value is 5 ± 8%.

What about the “IL-6 release from biopsies of UC patients” value [1] of the same compound?
Its value is 17 ± 23%.

What about the “IL-8 release from biopsies of UC patients” value [1] of the same compound?
Its value is 9 ± 15%.

What about the IC50 (GSK3α) of the same compound?
Its IC50 is 411 nM.
